Experimental data published in patent US20090069320A1, “Substituted 4-Amino-Quinazoline Compounds with Metabotropic Glutamate Receptor Regulating Activity and Uses Thereof” (Gruenenthal GmbH, priority 2006, published 2009).
pIC50: −log10 of the molar value. Counter-ions that a name gives are not always drawn.

molecular target: T1, mGluR5 receptor (Sus scrofa, UniProt I3LUI7); experiment: [3H]-MPEP mGluR5 receptor binding assay (pig brain homogenate); conditions: 5 nM [3H]-MPEP, read-out: IC50 mGluR5 Receptor (pig) [^3H]-MPEP Bond
T1 construct: 450 μg of protein from brain homogenate with 5 nM ^3[H]-MPEP; from tissue; host or cells: pig brain halves without medulla, cerebellum and pons
In short: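 Radioligand displacement of 5 nM [3H]-MPEP from pig brain homogenate (450 μg protein; medulla, cerebellum and pons removed) in 20 mM Hepes pH 8.0. Compounds were tested at 10 μM, incubated 60 min at room temperature, then filtered and counted by scintillation. Non-specific binding was defined with 10 μM MPEP.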

T1 sequence (I3LUI7 19-1212): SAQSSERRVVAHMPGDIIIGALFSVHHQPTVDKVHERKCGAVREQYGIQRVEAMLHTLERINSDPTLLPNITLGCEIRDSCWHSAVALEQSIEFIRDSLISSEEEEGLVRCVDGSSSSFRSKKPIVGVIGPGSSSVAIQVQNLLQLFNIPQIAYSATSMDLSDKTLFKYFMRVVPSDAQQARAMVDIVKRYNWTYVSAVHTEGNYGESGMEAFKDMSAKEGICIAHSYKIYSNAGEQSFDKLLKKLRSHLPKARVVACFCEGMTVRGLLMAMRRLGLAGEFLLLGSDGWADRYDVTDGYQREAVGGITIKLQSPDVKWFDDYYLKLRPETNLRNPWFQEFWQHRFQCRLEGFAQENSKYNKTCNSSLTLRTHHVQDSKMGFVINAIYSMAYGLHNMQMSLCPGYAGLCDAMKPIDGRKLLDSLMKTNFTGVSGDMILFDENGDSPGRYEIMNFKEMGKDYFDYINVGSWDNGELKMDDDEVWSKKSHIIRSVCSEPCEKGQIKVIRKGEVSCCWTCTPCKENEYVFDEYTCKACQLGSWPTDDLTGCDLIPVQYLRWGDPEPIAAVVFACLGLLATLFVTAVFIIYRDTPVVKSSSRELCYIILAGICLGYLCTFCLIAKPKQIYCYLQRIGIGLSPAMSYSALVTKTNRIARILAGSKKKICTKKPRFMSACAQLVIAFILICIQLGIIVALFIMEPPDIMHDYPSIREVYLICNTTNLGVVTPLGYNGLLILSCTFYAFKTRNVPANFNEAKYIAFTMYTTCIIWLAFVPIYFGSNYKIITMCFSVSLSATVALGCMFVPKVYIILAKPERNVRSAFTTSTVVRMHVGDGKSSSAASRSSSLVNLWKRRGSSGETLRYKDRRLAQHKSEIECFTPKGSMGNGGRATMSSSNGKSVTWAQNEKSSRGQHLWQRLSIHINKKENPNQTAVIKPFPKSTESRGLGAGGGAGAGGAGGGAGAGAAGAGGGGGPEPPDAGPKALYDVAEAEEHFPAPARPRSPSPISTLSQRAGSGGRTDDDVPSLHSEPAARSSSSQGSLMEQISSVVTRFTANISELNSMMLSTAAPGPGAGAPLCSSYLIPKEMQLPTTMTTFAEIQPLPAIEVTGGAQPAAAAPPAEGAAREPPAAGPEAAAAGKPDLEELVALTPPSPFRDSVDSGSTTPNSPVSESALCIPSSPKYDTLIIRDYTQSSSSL

Row | Compound | pIC50
1 | CC(C)(C)CNc1ncnc2ccc(-c3cccc(CN4C(=O)CCC4=O)c3)cc12 [Example 866, 1-(3-(4-(neopentylamino)quinazolin-6-yl)benzyl)pyrrolidine-2,5-dione] | 7.05
2 | O=C(N(Cc1cc(-c2ccc3ncnc(NC4CC4)c3c2)ccc1F)C1CC1)C(F)(F)F [Example 870, N-cyclopropyl-N-(5-(4-(cyclopropylamino)quinazolin-6-yl)-2-fluorobenzyl)-2,2,2-trifluoroacetamide] | 8.00
3 | O=C1CCC(=O)N1Cc1cccc(-c2ccc3ncnc(NC4CCC4)c3c2)c1 [Example 872, 1-(3-(4-(cyclobutylamino)quinazolin-6-yl)benzyl)pyrrolidine-2,5-dione hydrochloride] | 7.30
4 | CC(C)Nc1ncnc2ccc(-c3cccc(CN4C(=O)CCC4=O)c3)cc12 [Example 873, 1-(3-(4-(isopropylamino)quinazolin-6-yl)benzyl)pyrrolidine-2,5-dione hydrochloride] | 7.10
5 | CN1CCN(Cc2cccc(-c3ccc4ncnc(NC5CC5)c4c3)c2)C1=O [Example 877, 1-(3-(4-(cyclopropylamino)quinazolin-6-yl)benzyl)-3-methylimidazolidin-2-one] | 5.02
6 | CC(=O)N(Cc1cccc(-c2ccc3ncnc(NC4CC4)c3c2)c1)C(C)=O [Example 879, N-acetyl-N-(3-(4-(cyclopropylamino)quinazolin-6-yl)benzyl)acetamide] | 5.78
7 | O=C1CCC(=O)N1Cc1cccc(-c2ccc3ncnc(N4CCCC4)c3c2)c1 [Example 880, 1-(3-(4-(pyrrolidin-1-yl)quinazolin-6-yl)benzyl)pyrrolidine-2,5-dione] | 5.37
8 | O=C1CCC(=O)N1Cc1cccc(-c2cc(Cl)c3ncnc(NC4CC4)c3c2)c1 [Example 881, 1-(3-(8-chloro-4-(cyclopropylamino)quinazolin-6-yl)benzyl)pyrrolidine-2,5-dione] | 7.70
9 | O=C1CCC(=O)N1Cc1cccc(-c2cc(C(F)(F)F)c3ncnc(NC4CC4)c3c2)c1 [Example 883, 1-(3-(4-(cyclopropylamino)-8-(trifluoromethyl)quinazolin-6-yl)benzyl)pyrrolidine-2,5-dione] | 7.70
10 | Cc1cc2ncnc(NC3CC3)c2cc1-c1cccc(CN2C(=O)CCC2=O)c1 [Example 884, 1-(3-(4-(cyclopropylamino)-7-methylquinazolin-6-yl)benzyl)pyrrolidine-2,5-dione] | 6.89
11 | CC1CCC(=O)N1Cc1cccc(-c2ccc3ncnc(NC4CC4)c3c2)c1 (stereo not shown) [Example 885, 1-(3-(4-(cyclopropylamino)quinazolin-6-yl)benzyl)-5-methylpyrrolidine-2-one] | 6.40
12 | C=CCN(Cc1cccc(-c2ccc3ncnc(NC4CC4)c3c2)c1)C(C)=O [Example 886, N-allyl-N-(3-(4-(cyclopropylamino)quinazolin-6-yl)benzyl)acetamide] | 5.70
13 | CCCN(Cc1cccc(-c2ccc3ncnc(NC4CC4)c3c2)c1)C(C)=O [Example 887, N-(3-(4-(cyclopropylamino)quinazolin-6-yl)benzyl)-N-propylacetamide hydrochloride] | 5.51
14 | c1ccc(N(Cc2cccc(-c3ccc4ncnc(NC5CC5)c4c3)c2)C2CC2)nc1 [Example 888, N-cyclopropyl-6-(3-((cyclopropyl(pyridin-2-yl)amino)methyl)phenyl)quinazoline-4-amine] | 5.58

same assay, conditions: 10 μM compound, 5 nM [3H]-MPEP

Row | Compound | % Inhibition of mGluR5 Receptor (pig) [^3H]-MPEP Bond at 10 μM [%]
15 | CNc1ncnc2ccc(-c3cccc(CN(c4ccccc4F)S(=O)(=O)c4ccccc4)c3)cc12 [Example 852, N-(2-fluorophenyl)-N-(3-(4-(methylamino)quinazolin-6-yl)benzyl)benzole sulfonamide] | 49
16 | CC(C)S(=O)(=O)N(Cc1cc(-c2ccc3ncnc(NC4CC4)c3c2)ccc1Cl)C1CC1 [Example 854, N-(2-chloro-5-(4-(cyclopropylamino)quinazolin-6-yl)benzyl)-N-cyclopropyl propane-2-sulfonamide] | 75
17 | CCCCC(=O)N(Cc1cc(-c2ccc3ncnc(NC(C)(C)C)c3c2)ccc1F)C1CC1 [Example 856, N-(5-(4-(tert-butylamino)quinazolin-6-yl)-2-fluorobenzyl)-N-cyclopropyl pentanamide] | 89
18 | CC(C)(C)Nc1ncnc2ccc(-c3ccc(F)c(CN(C4CC4)S(=O)(=O)c4ccc(Cl)cc4Cl)c3)cc12 [Example 857, N-(5-(4-(tert-butylamino)quinazolin-6-yl)-2-fluorobenzyl)-2,4-dichloro-N-cyclopropyl benzole sulfonamide] | 36
19 | O=S(=O)(c1cccc(C(F)(F)F)c1)N(Cc1cc(-c2ccc3ncnc(NC4CC4)c3c2)ccn1)C1CC1 [Example 858, N-cyclopropyl-N-((4-(4-(cyclopropylamino)quinazolin-6-yl)pyridin-2-yl)methyl)-3-(trifluoromethyl)benzole sulfonamide] | 85

same assay, conditions: 10 μM compound, 5 nM [3H]-MPEP, read-out: % Inhibition of mGluR5 Receptor (pig) [^3H]-MPEP Bond at 10 μM

Row | Compound | inhibition at 10 µM [%]
20 | CS(=O)(=O)N(Cc1cc(-c2ccc3ncnc(NC4CC4)c3c2)ccn1)C1CC1 [Example 853, N-cyclopropyl-N-((4-(4-(cyclopropylamino)quinazolin-6-yl)pyridin-2-yl)methyl)methane sulfonamide] | 67
21 | CC(C)(C)Nc1ncnc2ccc(-c3ccc(F)c(CN(C(=O)c4ccc(F)cc4F)C4CC4)c3)cc12 [Example 855, N-(5-(4-(tert-butylamino)quinazolin-6-yl)-2-fluorobenzyl)-N-cyclopropyl-2,4-difluorobenzamide] | 83
22 | O=C(c1c(F)c(F)c(F)c(F)c1F)N(Cc1cc(-c2ccc3ncnc(NC4CC4)c3c2)ccc1Cl)C1CC1 [Example 859, N-(2-chloro-5-(4-(cyclopropylamino)quinazolin-6-yl)benzyl)-N-cyclopropyl-2,3,4,5,6-pentafluorobenzamide] | 92
23 | CC(C)(C)Nc1ncnc2ccc(-c3ccc(F)c(CN(C(=O)c4ccc(C(F)(F)F)cc4F)C4CC4)c3)cc12 [Example 860, N-(5-(4-(tert-butylamino)quinazolin-6-yl)-2-fluorobenzyl)-N-cyclopropyl-2-fluoro-4-(trifluoromethyl)benzamide] | 63
24 | CN(C)CC(=O)N(Cc1cc(-c2ccc3ncnc(NC(C)(C)C)c3c2)ccc1F)C1CC1 [Example 861, N-(5-(4-(tert-butylamino)quinazolin-6-yl)-2-fluorobenzyl)-N-cyclopropyl-2-(dimethylamino)acetamide] | 55
25 | COCCNc1ncnc2ccc(-c3cccc(CN4C(=O)CCC4=O)c3)cc12 [Example 867, 1-(3-(4-(2-methoxyethylamino)quinazolin-6-yl)benzyl)pyrrolidine-2,5-dione hydrochloride] | 67
26 | NC1(C(=O)NCc2cccc(-c3ccc4ncnc(NC5CC5)c4c3)c2)CC1 [Example 869, 1-amino-N-(3-(4-(cyclopropylamino)quinazolin-6-yl)benzyl)cyclopropane carboxamide dihydrochloride] | 65
27 | c1cc(Cn2cccc2)cc(-c2ccc3ncnc(NC4CC4)c3c2)c1 [Example 876, 6-(3-((1H-pyrrol-1-yl)methyl)phenyl)-N-cyclopropylquinazoline-4-amine] | 47
28 | CN(Cc1cccc(-c2ccc3ncnc(NC4CC4)c3c2)c1)c1ccccn1 [Example 878, N-cyclopropyl-6-(3-((methyl(pyridin-2-yl)amino)methyl)phenyl)quinazoline-4-amine] | 56
